Data published in the supplement of paper PMC10307832.

Tests used:
Experiment in all cases: relative viability (nuclei count vs DMSO), 5 days (fraction); higher = more cells survive
VX-11e + Vorinostat = compound: CC1=CN=C(N=C1C2=CNC(=C2)C(=O)N[C@H](CO)C3=CC(=CC=C3)Cl)NC4=C(C=C(C=C4)F)Cl [VX-11e] + O=C(CCCCCCC(=O)Nc1ccccc1)NO [Vorinostat] (partner 1 µM)
In short: (§1)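 For relative viability, nuclei counts in treated wells were divided by those in vehicle wells. Lung cancer cell lines had been pin-tool dosed in 1536-well plates the day after seeding and cultured for 5 days, then fixed and stained in one step (final 0.05% Triton X-100, 1% formaldehyde, 1 ug/ml Hoechst) and imaged at 4×. Doses were one drug alone or a fixed anchor-drug dose plus five library-drug doses (not always all listed) in √10 steps, and values are duplicate-plate medians.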

VX-11e + Pictilisib = compound: CC1=CN=C(N=C1C2=CNC(=C2)C(=O)N[C@H](CO)C3=CC(=CC=C3)Cl)NC4=C(C=C(C=C4)F)Cl [VX-11e] + CS(=O)(=O)N1CCN(Cc2cc3nc(-c4cccc5[nH]ncc45)nc(N4CCOCC4)c3s2)CC1 [Pictilisib] (partner 1 µM)
In short: as §1

VX-11e + Dasatinib = compound: CC1=CN=C(N=C1C2=CNC(=C2)C(=O)N[C@H](CO)C3=CC(=CC=C3)Cl)NC4=C(C=C(C=C4)F)Cl [VX-11e] + Cc1nc(Nc2ncc(C(=O)Nc3c(C)cccc3Cl)s2)cc(N2CCN(CCO)CC2)n1 [Dasatinib] (partner 0.075 µM)
In short: as §1

VX-11e + Crizotinib = compound: CC1=CN=C(N=C1C2=CNC(=C2)C(=O)N[C@H](CO)C3=CC(=CC=C3)Cl)NC4=C(C=C(C=C4)F)Cl [VX-11e] + C[C@@H](Oc1cc(-c2cnn(C3CCNCC3)c2)cnc1N)c1c(Cl)ccc(F)c1Cl [Crizotinib] (partner 1 µM)
In short: as §1

| Cell Line | relative viability (VX-11e + Vorinostat; first compound 0.04 µM) | relative viability (VX-11e + Vorinostat; first compound 0.1265 µM) | relative viability (VX-11e + Vorinostat; first compound 0.4 µM) | relative viability (VX-11e + Vorinostat; first compound 1.265 µM) | relative viability (VX-11e + Vorinostat; first compound 4 µM) | relative viability (VX-11e + Pictilisib; first compound 0.04 µM) | relative viability (VX-11e + Pictilisib; first compound 0.1265 µM) | relative viability (VX-11e + Pictilisib; first compound 0.4 µM) | relative viability (VX-11e + Pictilisib; first compound 1.265 µM) | relative viability (VX-11e + Pictilisib; first compound 4 µM) | relative viability (VX-11e + Dasatinib; first compound 0.04 µM) | relative viability (VX-11e + Dasatinib; first compound 0.1265 µM) | relative viability (VX-11e + Dasatinib; first compound 0.4 µM) | relative viability (VX-11e + Dasatinib; first compound 1.265 µM) | relative viability (VX-11e + Dasatinib; first compound 4 µM) | relative viability (VX-11e + Crizotinib; first compound 0.04 µM) | relative viability (VX-11e + Crizotinib; first compound 0.1265 µM) | relative viability (VX-11e + Crizotinib; first compound 0.4 µM) | relative viability (VX-11e + Crizotinib; first compound 1.265 µM) | relative viability (VX-11e + Crizotinib; first compound 4 µM) |
| --- | --- | --- | --- | --- | --- | --- | --- | --- | --- | --- | --- | --- | --- | --- | --- | --- | --- | --- | --- | --- |
| PC-14 | 0.747 | 0.692 | 0.355 | 0.58 | 0.302 | 0.661 | 0.619 | 0.583 | 0.494 | 0.207 | 0.359 | 0.237 | 0.168 | 0.319 | 0.109 | 0.993 | 0.916 | 0.861 | 0.878 | 0.506 |
| RERF-LC-KJ | 0.7 | 0.653 | 0.586 | 0.594 | 0.623 | 0.63 | 0.521 | 0.614 | 0.641 | 0.484 | 0.872 | 0.758 | 0.867 | 0.71 | 0.59 | 0.899 | 0.834 | 0.881 | 0.863 | 0.753 |
| SK-LU-1 | 0.827 | 0.771 | 0.766 | 0.545 | 0.298 | 0.442 | 0.551 | 0.249 | 0.37 | 0.195 | 0.202 | 0.184 |  | 0.147 | 0.108 | 0.987 | 0.761 | 0.789 | 0.735 | 0.407 |
| SK-MES-1 | 1.12 | 1.04 | 0.902 | 0.422 | 0.393 | 0.337 | 0.31 | 0.316 | 0.249 | 0.168 | 0.403 | 0.332 | 0.393 | 0.188 | 0.185 | 1.09 | 0.966 | 1.05 | 0.964 | 0.643 |
| SW 1573 |  | 0.956 | 0.408 | 0.432 | 0.466 | 0.509 | 0.522 | 0.404 | 0.307 | 0.298 | 0.656 | 0.641 | 0.718 | 0.424 | 0.28 | 0.871 | 0.789 | 0.743 | 0.793 | 0.451 |
| UMC-11 | 0.374 | 0.337 | 0.447 | 0.297 | 0.315 | 0.355 | 0.943 | 0.755 | 0.401 | 0.609 | 0.44 | 0.42 | 0.439 | 0.587 | 0.464 | 0.699 | 0.785 | 0.574 | 0.511 | 0.662 |
